# According to US20090170858A1, “Methods and Compositions Containing Natural Folates for Protecting Against Radiation Damage” (priority 2005, published 2009):
# Entries after “also recorded” stand apart in the source; their conditions may differ.
# How the values were obtained:
# [1] = Rose Bengal photosensitization reaction, depletion of 5-MTHF (HPLC)
# Protocol: Photochemical reactions with Rose Bengal were carried out as follows. Samples in septum-stoppered glass cuvettes were illuminated at a distance of 12 cm by light from a 40 W tungsten lamp passed through a Wratten #16 gelatin filter. Reactions were equilibrated with air or sparged with 100% or 1.8% O2 in argon, or extensively with 100% argon, and illumination was carried out at ambient temperature. Samples were taken through the septum by syringe and injected directly into the HPLC.
# (§1) 5-MTHF photodegradation was assayed by HPLC using the following procedure. Samples were taken during light exposure at various times and analyzed by HPLC on a Luna phenyl-hexyl 5 μm (25×0.46 cm) column (Phenomenex) eluted at a flow rate of 1.5 ml/min with ammonium phosphate (20 mM in ammonium), pH 2.8/acetonitrile (17:1) with detection by UV absorbance using Waters 996, photodiode array spectrometer.
# [2] = Photodegradation on UVA, UVB or visible light exposure without photosensitizer (HPLC)
# Protocol: (§2) UVA and UVB irradiation were carried out under the following conditions. Samples were exposed to UV light at a distance of 30 cm from either a 15 W UVA lamp, Sylvania 350 BL, (lambda max=365 nm, 820 μW/cm2) or 15 W UVB lamp, UVP (lambda max=302 nm, 820 μW/cm2); both purchased from UVP, Inc., USA. The lamps were mounted in a UVP Model XX-15 lamp holder rested on a XX exposure stand.
# (§3) To give a solution depth of about 3 mm, 0.5 ml reaction volumes were used in clear 24-well plates. To prevent evaporation during the UVA exposure, samples were covered with MICROAMP™ Optical Adhesive Film (ABI) allowing greater than 80% transmission above 330 nm. […] reactions were covered with a quartz window. All reactions were performed at ambient temperature in 10 mM potassium phosphate pH 7.41 (measured at 10 mM and 21° C.), equilibrated to air, in the presence of 100 μM diethylenetriaminepentaacetic acid in order to prevent the effect of adventitious redox-active metal ions, pre-empt the Fenton reaction and avoid hydroxyl radical-induced damage.
# as §1
# [3] = Reaction with photoexcited pterin-6-carboxylic acid under UVA, depletion of 5-MTHF (HPLC)
# Protocol: as §2, §3
# (§4) Reactions with photoexcited pterin-6-carboxylic acid or folic acid were carried out as follows. Samples were exposed in 24-well plates to UVA light in 0.5 ml reaction volumes containing 5-MTHF and folic acid or PCA in the absence or presence of sodium ascorbate in 10 mM potassium phosphate buffer pH 7.42. […]
# [4] = tested on: Supercoiled plasmid DNA, PBR 322; experiment: UVA-mediated strand breaks in plasmid DNA, agarose gel electrophoresis; details: for strand-breaks in supercoiled plasmid DNA on UVA exposure / effect on the plasmid in the dark: 50 μM; for strand-breaks in supercoiled plasmid DNA on UVA exposure: UVA for 80 min, FIG. 3; for effect on the plasmid in the dark: incubated 80 min in the dark
# Protocol: as §2, §3
# Strand breaks in DNA were detected as follows. Supercoiled plasmid DNA is converted into a nicked circular-form (relaxed) due to single-strand breaks, and subsequently into a linear form due to double-strands breaks. The three forms can be separated by agarose gel electrophoresis. Supercoiled DNA migrates further than the linear form, which in turn migrates further than the relaxed form.
# A mixture of 0.1 μg of plasmid DNA, PBR 322, and folic acid, 5-MTHF or PCA in 10 mM potassium phosphate, pH 7.4, was incubated for 80 min under the above UVA-irradiation conditions for a total exposure of 4 J/cm^2. To partially maintain the concentration of 5-MTHF, a 0.25 mM solution was continuously added to the reaction mixture at 1.1 μl/min using a Harvard syringe pump with magnetic stirring.
# A sample of 10 μl of the reaction mixture was then subjected to agarose gel electrophoresis after addition of 2 μl of 10× gel loading buffer. Agarose gel for electrophoresis was prepared by dissolving 0.9% agarose in 45 mM Tris-borate buffer (pH 8.3), containing 1 mM EDTA. Electrophoresis was run at 4 V/cm for 1 h. The gel was incubated with 1 μg/ml SYBR Safe stain, and the DNA bands were scanned using Fuji FLA-5000 phosphor-imaging system.
# [5] = Rate of reaction with singlet oxygen in water; format: physicochemical; details: inferred from competition with azide
# [6] = Protocol: as §2, §3, §4
# [7] = tested on: Rose Bengal-loaded THP-1 cells; details: viable Rose Bengal-loaded THP-1 cells; cited from earlier work
# [8] = cited from earlier work
compound,measurement,setting,value
"CN1c2c(nc(N)[nH]c2=O)NC[C@@H]1CNc1ccc(C(=O)N[C@@H](CCC(=O)[O-])C(=O)O)cc1.CN1c2c(nc(N)[nH]c2=O)NC[C@@H]1CNc1ccc(C(=O)N[C@@H](CCC(=O)[O-])C(=O)O)cc1.[Ca+2] [5-MTHF, 5-Methyl-6S-tetrahydrofolic acid calcium salt]",depletion of 5-MTHF by visible-light sensitized Rose Bengal,"[1]; 25 μM 5-MTHF, pH 7.4, Rose Bengal, SOD, FIG. 2A",depleted
same,effectiveness in scavenging singlet oxygen relative to azide,"[1]; competition reaction, high concentrations of O2, FIG. 2B",about 20 fold
same,stability when illuminated alone,"[2]; UVA, UVB or visible light, no photosensitizer, calcium salt",stable; also recorded: unaffected; also recorded: not photolyzed directly by UV
same,degradation (autooxidation) on exposure to UVA or UVB,"[2]; in 1 hr, same extent as in the absence of light",< 5%
same,time to complete depletion of 5-MTHF,"[3]; initial 25 μM 5-MTHF, 50 μM PCA, UVA exposure",≤ 15 min
same,UVA mediated DNA-damage in the presence of folic acid or PCA,"[4]; 50 μM folic acid or PCA, UVA 80 min, 5-MTHF added continuously, 10 μM falling to 0.25 μM, calcium salt",inhibited
same,cleavage of plasmid DNA induced by the compound alone under UV,"[4]; 5-MTHF alone, UV",does not induce cleavage of plasmid DNA
same,5-MTHF concentration that prevented strand-breaks in plasmid DNA,[4]; in the presence of photoexcited PCA,below 10 μM
same,rate of reaction with singlet oxygen,[5],nearly diffusion limited
same,5-MTHF concentration that prevented photodegradation of folic acid,[6]; UV exposure,below 10 μM
same,folic acid maintained until 5-MTHF decayed below this concentration,"[6]; photolysis of folic acid in the presence of 5-MTHF, FIG. 1",below 1 μM
"Nc1nc2ncc(C(=O)O)nc2c(=O)[nH]1 [PCA, pterin-6 carboxylic acid]",strand-breaks in supercoiled plasmid DNA on UVA exposure,[4],high percentage of strand-breaks
same,effect on the plasmid in the dark,[4],no effect
"O=C1O[C@H]([C@@H](O)CO)C([O-])=C1O.[Na+] [ascorbate, sodium ascorbate]",rate of loss of 5-MTHF in Rose-Bengal induced photosensitization,"[1]; mM levels of sodium ascorbate, high oxygen, FIG. 2C",decreased
same,maintenance of 5-MTHF throughout the reaction,"[3]; 1 mM ascorbate, 25 μM 5-MTHF, 10 μM PCA, UVA",substantially maintained
same,effect on the generation of protein-derived peroxides,[7],no effect
same,rate constant for the reaction with singlet oxygen in water,[8],8.3e+06 M⁻¹ s⁻¹
"[N-]=[N+]=[N-].[Na+] [azide, Sodium azide]",decrease of the depletion rate of 5-MTHF,"[1]; 0.5 mM azide, 100% O2, 10 μM Rose Bengal, FIG. 2B",about 50%
same,decrease of the initial rate of depletion of 5-MTHF,"[1]; 5 mM azide, 100% O2, 10 μM Rose Bengal, FIG. 2B",about 80%
same,protection against UVA mediated DNA-damage,"[4]; 10 mM sodium azide, same conditions",full protection
same,rate constant for the reaction with singlet oxygen in water,[8],4.5e+08 M⁻¹ s⁻¹
Nc1nc2ncc(CNc3ccc(C(=O)N[C@@H](CCC(=O)O)C(=O)O)cc3)nc2c(=O)[nH]1 [folic acid],photolysis products on exposure to UVA,"[2]; UVA, HPLC, similar results with UVB","initially yields, p-aminobenzoylglutamate and 6-FP"
same,strand-breaks in supercoiled plasmid DNA on UVA exposure,[4],high percentage of strand-breaks
same,effect on the plasmid in the dark,[4],no effect
